Source: patent publication US20060234909A1, “Compositions and methods for increasing drug efficiency” (priority 2003, published 2006)
Primed or numbered codes have the meaning given here. * marks the point of attachment. 10Ca = carbamate linkage conjugating the peptide-PEG to paclitaxel at C10; 10Ca‑PXL = paclitaxel conjugated at C10 via a carbamate; 3Am‑VBL = vinblastine (VBL) conjugate; 3Am‑VBL″ = vinblastine conjugate; PEG(13)″ = PEG(13) linker; PEG(11) = PEG(11) linker; DMAB = not defined here; 3Am = not defined here; Cbz = O=C(OCc1ccccc1)*; PEG(13) = PEG13 linker; Piv = CC(C)(C)C(=O)*; OBn = c1ccc(CO*)cc1; VBL = vinblastine; PXL = paclitaxel

Experiments:
[1] = biological target: T1, Human Src (Homo sapiens, UniProt P12931); assay: Src kinase assay (PKLight ATP utilization, substrate phosphorylation as % of parent peptide); assay type: biochemical
T1 construct: purchased Upstate (Charlottesville, Va.) 14-326
Experimental: (§1) Another test may involve monitoring the consumption of ATP. For example, ATP concentrations at time 0 or after 4 hour incubation may be monitored by luciferase reaction (PKLight kit obtained from Cambrex Corporation, One Meadowlands Plaza, East Rutherford, N.J. 07073), which generate a luminescence readout in the presence of ATP. Assays are initiated by mixing a kinase and a peptide in the presence of 40 μM ATP. After 4 hour of incubation at 30° C., PKLight reagent is added and mixed well, and luminescence readout measured. The rate of peptide phosphorylation is then directly related to the rate of decrease in the observed luminescence. Based on the first test, linkers of appropriate lengths and peptides with an effective amount of kinase activity which may be expected to be retained in the drug conjugate may be found.
(§2) Human Src (#14-326) and Akt (#14-276) kinases were purchased from Upstate (Charlottesville, Va.). Kinase reactions were carried out in 50 μl kinase reaction cocktail (25 mM Tris-HCl, pH 7.5, 5 μM β-glycerophosphate, 2 mM DTT, 0.1 mM Na3VO4, 10 mM MgCl2, 1 mg/ml BSA, […], 0.5 to 1.0 units enzyme). Substrates (peptide or drug-peptide conjugate in […]) were added (25, 50 and 100 μM) and the reaction was incubated for 2-5 hours at 30° C. PKLight reagent (23 μl) (Cambrex BioSciences, Rockland, Me.) was mixed with […] of the above kinase reaction and ATP utilization relative to no substrate and no ATP controls was determined by measuring luminescence with a SpectraMax Gemini EM plate reader (Molecular Devices, Sunnyvale, Calif.). Peptide substrates for Src and Akt have been described. For examples, see Lou et al. Letters in Peptide Science, 2, 289-296 (1995); Lou et al. Bioorganic & Medicinal Chemistry, 4, 677-682 (1996); Alessi et al. FEBS Letters, 399, 333-338 (1996). Substrate phosphorylation potential was determined from the linear portion of the substrate concentration dose response as a percentage of the activity observed with the parent peptide used for drug conjugation.

[2] = tested on: Normal human foreskin fibroblasts (HFF); settings: read-out: HFF (EC50 Ave) ML; HFF, ML (monolayer)
[3] = tested on: HT-29 cells; settings: read-out: HT29 (EC50 Ave) SA; HT29, SA (soft agar)
[4] = tested on: HUVEC; assay: Cytotoxicity assay (monolayer), HUVEC; assay type: cell-based; settings: ML (monolayer), read-out: HUVEC (EC50 Ave) ML
[5] = tested on: tubulin; assay: Fluorescence-based tubulin polymerization assay (MPA; enhancement for paclitaxel, inhibition for vinblastine); assay type: biochemical
Procedure, shortened: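 Tubulin polymerisation was followed by fluorescence (ex 360/em 405 nm) with 1 mg/ml BSA in all assays. For paclitaxel conjugates, glycerol was omitted. Parent drugs and conjugates were tested at 0.75, 1.5, 3 and 10 micromolar final, and values come from the linear range of the dose responses.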

[6] = tested on: MCF-7 cells; settings: read-out: MCF7 (EC50 Ave) SA; MCF7, SA (soft agar)
[7] = tested on: HT-29 colorectal carcinoma; assay: Cytotoxicity assay (monolayer), HT-29; assay type: cell-based; settings: HT29, ML (monolayer); read-out: HT29 (EC50 Ave) ML;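 also: monolayer cultures tested in triplicate, compound exposure for three days against DMSO vehicle controls, EC50 fitted from dose-response curves and averaged across all tests and lots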
[8] = tested on: MCF-7 breast carcinoma; assay: Cytotoxicity assay (monolayer), MCF-7; assay type: cell-based; settings: MCF7, ML (monolayer); read-out: MCF7 (EC50 Ave) ML;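 also: cells treated 72 h with 6-8 compound doses versus DMSO vehicle controls, EC50 fitted by 4-parameter dose-response curves, averaged across all tests and lots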
[9] = biological target: Akt (Homo sapiens, UniProt P31749); assay: Akt kinase assay (PKLight ATP utilization, substrate phosphorylation as % of parent peptide); assay type: biochemical; design: purchased Upstate (Charlottesville, Va.) 14-276
Experimental: as §1, §2

[10] = Serum stability in RPMI1640 medium containing 10% fetal bovine serum; assay type: in vitro ADME
Experimental: The stability of conjugates was measured in RPMI1640 cell culture medium containing 10% fetal bovine serum. The serum-containing medium was pre-warmed at 37° C. for 3 min prior to addition of test articles. Test articles, prepared in DMSO as 5 mM stocks, were added to the cell culture media to a final concentration of 10 μM. Aliquots ([…]) were withdrawn in triplicate at 0, 4, 8, 24 and 72 hours and combined with the same volume of ice-cold acetonitrile to terminate the reaction. The mixture was centrifuged at 2,000×g for 10 minutes. One part of the supernatant was mixed with four parts of deionized water to bring down the percentage of organic solvent. The diluted samples were then assayed by LC/MS for the test article. The natural log of the percent remaining was plotted versus time. A linear fit was used to determine the rate constant. The fit was truncated after the percent of remaining test article was less than 10%. The elimination half-lives associated with the disappearance of test articles were determined to compare their relative stability. The assays were carried out by Absorption Systems (Exton, Pa.).

Chain of Akt (P31749 whole entry): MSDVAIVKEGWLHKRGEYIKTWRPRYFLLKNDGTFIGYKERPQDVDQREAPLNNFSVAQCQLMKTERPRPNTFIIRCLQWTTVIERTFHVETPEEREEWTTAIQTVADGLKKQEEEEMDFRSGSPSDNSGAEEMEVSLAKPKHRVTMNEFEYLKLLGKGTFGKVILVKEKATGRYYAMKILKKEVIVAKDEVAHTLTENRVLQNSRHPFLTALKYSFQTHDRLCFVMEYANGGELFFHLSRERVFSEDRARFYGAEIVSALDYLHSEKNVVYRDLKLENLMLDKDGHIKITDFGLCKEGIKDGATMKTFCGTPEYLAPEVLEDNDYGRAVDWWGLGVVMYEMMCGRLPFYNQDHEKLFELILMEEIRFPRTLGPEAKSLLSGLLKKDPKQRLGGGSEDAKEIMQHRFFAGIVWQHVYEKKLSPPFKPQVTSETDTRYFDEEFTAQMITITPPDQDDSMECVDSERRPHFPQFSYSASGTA

| Molecule | Average src kinase activity [1] | EC50 [2] [nM] | EC50 [3] [nM] | EC50 [4] [nM] | Ave. MPA Act. [5] | EC50 [6] [nM] | EC50 [7] [nM] | EC50 [8] [nM] | Ave. Akt Kinase Act. [9] | Relative Percent Remaining at 0 hr ([10]; 0 hr) [%] | remaining at 4 h, 10 μM ([10]; bovine, 4 hr, read-out: Relative Percent Remaining at 4 hr) [%] | remaining at 8 h, 10 μM ([10]; bovine, 8 hr, read-out: Relative Percent Remaining at 8 hr) [%] | remaining at 24 h, 10 μM ([10]; bovine, 24 hr, read-out: Relative Percent Remaining at 24 hr) [%] | remaining at 72 h, 10 μM ([10]; bovine, 72 hr, read-out: Relative Percent Remaining at 72 hr) [%] |
| --- | --- | --- | --- | --- | --- | --- | --- | --- | --- | --- | --- | --- | --- | --- |
| Pv-E(Bzl)YIYGSFK(CBz)-PEG(13)-10Ca-PXL (Piv-E(OBn)YIYGSFK(Cbz)-{PEG(13)″-10Ca-PXL}; also: TFA salt) | A (A<20) | > 100 | > 100 | > 100 | A (A<50) | 20 to 100 | > 100 | > 100 | – | – | – | – | – | – |
| Ac-YIYGSFR-PEG(11)-3Am-VBL (N-acetyl; PEG(11) linker; vinblastine conjugate) | C (C>40) | > 100 | > 100 | > 100 | B (B=50-80) | 20 to 100 | 20 to 100 | 20 to 100 | – | – | – | – | – | – |
| Ac-RPRTSSF-PEG(11)-3Am-VBL (N-acetyl; PEG(11) linker; vinblastine conjugate) | – | 20 to 100 | – | > 100 | C (C>80) | – | 20 to 100 | 20 to 100 | C (C>40) | – | – | – | – | – |
| BOC-E(Bzl)YIFGSFK(BOC)-PEG(11)-3Am-VBL | A (A<20) | > 100 | 20 to 100 | > 100 | A (A<50) | < 20 | > 100 | 20 to 100 | – | – | – | – | – | – |
| CBz-GRPRTSSFAEG-3Am-VBL (Cbz-GRPRTSSFAEG-{3Am-VBL}; reading uncertain; also: printed as CBz-GRPRTSSFAEG-3Am-VBL) | – | > 100 | – | > 100 | C (C>80) | – | > 100 | > 100 | C (C>40) | – | – | – | – | – |
| Pv-YIYGSFR-PEG(11)-3Am-VBL (Piv-YIYGSFR-{PEG(11)-3Am‑VBL}) | B (B=20-40) | > 100 | > 100 | > 100 | C (C>80) | > 100 | > 100 | > 100 | – | – | – | – | – | – |
| CC(=O)O[C@H]1C(=O)[C@@]2(C)[C@H]([C@H](OC(=O)c3ccccc3)[C@]3(O)C[C@H](OC(=O)[C@H](O)[C@@H](NC(=O)c4ccccc4)c4ccccc4)C(C)=C1C3(C)C)[C@]1(OC(C)=O)CO[C@@H]1C[C@@H]2O [Paclitaxel, reference compound] | – | – | – | – | – | – | – | – | – | 100 | 73 | 59 | 28 | < 3 |
| Ac-EYIYGSFR-PEG(11)-3Am-VBL (N-acetyl, PEG11, vinblastine conjugate) | B (B=20-40) | > 100 | > 100 | > 100 | C (C>80) | > 100 | > 100 | > 100 | – | – | – | – | – | – |
| Pv-GRPRTSSFAE(DMAB)G-3Am-VBL (Piv-GRPRTSSFAE(DMAB)G-{3Am‑VBL″}; not fully specified; reading uncertain) | – | > 100 | – | > 100 | C (C>80) | – | > 100 | > 100 | C (C>40) | – | – | – | – | – |
| Pv-GRPRTSSFAEG-3Am-VBL (Piv-GRPRTSSFAEG-{3Am‑VBL}; also: 2 TFA salt) | – | > 100 | – | > 100 | C (C>80) | – | > 100 | > 100 | C (C>40) | – | – | – | – | – |
| BOC-YIYGSFR-PEG(11)-3Am-VBL (N-BOC; PEG(11) linker; vinblastine conjugate) | B (B=20-40) | > 100 | > 100 | > 100 | C (C>80) | > 100 | > 100 | > 100 | – | – | – | – | – | – |
| BOC-RPRTSSF-PEG(11)-3Am-VBL (N-BOC; PEG(11) linker; vinblastine conjugate) | – | 20 to 100 | – | 20 to 100 | C (C>80) | – | 20 to 100 | 20 to 100 | C (C>40) | – | – | – | – | – |
| Pv-E(DMAB)YIYGSFR-PEG(11)-3Am-VBL (EYIYGSFR) | A (A<20) | > 100 | 20 to 100 | 20 to 100 | B (B=50-80) | 20 to 100 | > 100 | 20 to 100 | – | – | – | – | – | – |
| Pv-RSRTSSFAEG-PEG(13)-10Ca-PXL (Piv-RSRTSSFAEG-{PEG(13)-10Ca‑PXL}; also: 2 TFA salt) | – | – | – | – | C (C>80) | – | – | – | C (C>40) | – | – | – | – | – |
| BOC-EYIYGSFK(BOC)-PEG(11)-3Am-VBL (N-BOC; BOC side chain; PEG(11); vinblastine conjugate) | B (B=20-40) | > 100 | > 100 | > 100 | C (C>80) | > 100 | > 100 | > 100 | – | – | – | – | – | – |
| Pv-RSRKESY-PEG(13)-10Ca-PXL (Piv-RSRKESY-{PEG(13)-10Ca‑PXL}; also: 2 TFA salt) | – | – | – | – | C (C>80) | – | – | – | C (C>40) | – | – | – | – | – |
| CBz-E(Bzl)YIFGSFK-PEG(11)-3Am-VBL (CBz-Glu(Bzl) N-terminal; PEG(11); vinblastine conjugate) | C (C>40) | > 100 | > 100 | > 100 | B (B=50-80) | > 100 | > 100 | > 100 | – | – | – | – | – | – |
| Ac-RSRTSSF-PEG(13)-10Ca-PXL (N-acetyl; PEG(13) linker; paclitaxel conjugate) | – | – | – | – | C (C>80) | – | – | – | C (C>40) | – | – | – | – | – |
| Pv-EYIYGSFR-PEG(13)-10Ca-PXL (Piv-EYIYGSFR-{PEG(13)-10Ca‑PXL}) | B (B=20-40) | > 100 | > 100 | > 100 | B (B=50-80) | > 100 | > 100 | > 100 | – | – | – | – | – | – |
| Pv-YIFGSFR-PEG(13)-10Ca-PXL (Piv-YIFGSFR-{PEG(13)″-10Ca‑PXL}; also: TFA salt) | Zero | > 100 | > 100 | > 100 | A (A<50) | 20 to 100 | > 100 | > 100 | – | – | – | – | – | – |
| Ac-EYIyGSFK-PEG(13)-10Ca-PXL (EYIYGSFK; not fully specified) | Zero | > 100 | > 100 | > 100 | C (C>80) | > 100 | > 100 | > 100 | – | – | – | – | – | – |
